Measured values as given in publication PMC7586456 (ACS Pharmacology & Translational Science, 2020).
Where two headings read alike, the source gives them in different places.

Experiments:
VSV-G PP [1] = assay: microbe, parasite or virus in culture; assay type: cell-based, Vesicular stomatitis virus; conditions: for EC50: Vesicular stomatitis virus, Huh-7, read-out: VSV-G PP in Huh7 EC50
MERS-S PP [2] = assay type: cell-based, MERS-CoV
SARS-S PP [3] = assay type: cell-based, SARS-CoV
MERS-S PP [4] = assay type: cell-based, MERS-CoV; remark: listed apart in the source
in vitro = conditions: human
Vero E6 cells [5] = tested on: Vero E6 cells
[6] = tested on: SARS CoV-2 (USA_WA1/2020)
Huh7 cells = conditions: human
SARS-S PP [7] = assay type: cell-based, SARS-CoV; remark: listed apart in the source
Vero E6 cells [8] = tested on: Vero E6 cells; remark: listed apart in the source
[9] = tested on: SARS CoV-2 (USA_WA1/2020); conditions: cited from earlier work
VSV-G PP [10] = assay type: cell-based, Vesicular stomatitis virus

Molecule	VSV-G PP in Huh7 efficacy (VSV-G PP [1])	EC50 (VSV-G PP [1])	MERS-S PP in Huh7 efficacy (MERS-S PP [4])	CC50 (in vitro)	Vero E6 cytotoxicity cytotox (SARS-CoV-2 CPE counter screen) (Vero E6 cells [5]; African green monkey)	safety ratio (CC50 of Vero E6 CPE counter screen divided by EC50 of SARS-CoV-2 CPE assay) ([6]; African green monkey)	Huh7 cytotoxicity cytotox (Huh7 cells)	SARS-S PP in Vero E6 efficacy (SARS-S PP [7])	Vero E6 cytotoxicity cytotox (Vero E6 cells [8]; African green monkey)	VSV-G PP in Vero E6 efficacy (VSV-G PP [10])	also measured
CCN1CCN(Cc2ccc(Nc3ncc(F)c(-c4cc(F)c5nc(C)n(C(C)C)c5c4)n3)nc2)CC1 [abemaciclib]	27.1%	> 57.5 µM	82.3%	17.1 µM	34.0%	6.3	90.0%	–	–	–	selectivity toward MERS-S-based entry compared with VSV-G in Calu-3 cells (MERS-S PP [2]): > 10 fold; selectivity toward SARS-S-based entry compared with VSV-G in Calu-3 cells (SARS-S PP [3]): > 10 fold
COc1ccc2cc1Oc1ccc(cc1)C[C@H]1c3c(cc4c(c3Oc3cc5c(cc3OC)CCN(C)[C@@H]5C2)OCO4)CCN1C [cepharanthine]	115.3%	24.2 µM	108.4%	38.3 µM	99.0%	–	88.9%	90.9%	106.2%	76.9%	block of SARS-CoV-2 induced CPE in Vero E6 cells (in words) [9]: able to block SARS-CoV-2 induced CPE in Vero E6 cells, only when added during the viral entry time period, and not the postentry period; SARS-CoV-2 CPE efficacy [6]: 92.5%
CN(C)CCCN1c2ccccc2CCc2ccc(Cl)cc21 [clomipramine]	–	–	–	–	–	–	–	–	–	–	activity against SARS-S PP entry in the primary screen (in words) (SARS-S PP [7]): active against SARS-S PP entry; cytotoxicity in the primary screen (in words) (Vero E6 cells [8]): noncytotoxic; protection against SARS-CoV-2 CPE (in words) [9]: protect against SARS-CoV-2 CPE
COc1c(OCCCN2CCOCC2)ccc2c1N=C(NC(=O)c1cnc(N)nc1)N1CCN=C21 [copanlisib]	6.2%	> 57.5 µM	65.8%	> 57.5 µM	42.4%	–	13.6%	–	–	–	SARS-CoV-2 CPE efficacy [6]: 0.0%
CC1=C[C@]23C(=O)[C@@H](C=C(CO)[C@@H](O)[C@]2(O)[C@H]1O)[C@H]1[C@@H](C[C@H]3C)C1(C)C [ingenol]	–	–	–	–	0.0%	355.7	–	93.3%	–4.0%	76.4%	selectivity ratio (EC50 of VSV-G PP entry divided by SARS-S PP entry EC50) (SARS-S PP [7]): 12.0; activity in MERS-S PP entry in Huh7 cells (in words) (MERS-S PP [4]): not in MERS-S entry in Huh7 cells
C=CC(=O)Nc1cc(Nc2nccc(-c3cn(C)c4ccccc34)n2)c(OC)cc1N(C)CCN(C)C [osimertinib]	–	–	–	–	99.7%	2.5	–	117.5%	99.6%	118.4%	selectivity ratio (EC50 of VSV-G PP entry divided by SARS-S PP entry EC50) (SARS-S PP [7]): 15.8
CC(CN(C)C)CN1c2ccccc2CCc2ccccc21 (stereo not drawn) [trimipramine]	–	–	–	–	16.6%	1.0	–	90.9%	16.6%	29.2%	entry inhibition activity in Calu-3 cells (in words) (SARS-S PP [3]): not confirmed
colforsin [NKH477]	–	–	–	–	–	–	–	71.4%	–	0%	EC50 (SARS-S PP [7]; read-out: SARS-S PP in Vero E6 EC50): 1.36 µM; CC50 (Vero E6 cells [8]): > 57.5 µM; Vero E6 cytotoxicity cytotox (Vero E6 cells [8]): 0%; activity in MERS-S PP entry in Huh7 cells (in words) (MERS-S PP [4]): not in MERS-S entry in Huh7 cells; CC50 (Vero E6 cells [5]): 25.2 µM; Vero E6 cytotoxicity cytotox (SARS-CoV-2 CPE counter screen) (Vero E6 cells [5]): 42.0%; safety ratio (CC50 of Vero E6 CPE counter screen divided by EC50 of SARS-CoV-2 CPE assay) [6]: 1.1; EC50 ([6]; read-out: SARS-CoV-2 CPE EC50): 23.1 µM; EC50 (VSV-G PP [10]; read-out: VSV-G PP in Vero E6 EC50): > 57.5 µM
